{"source": "patent US8461082B2", "about": "“Herbicidal composition and method for removing unwanted foliage” (priority 2006, dated 2013)", "key": {"[1]": {"experiment": "Examples 4-6 mixing in 1000 L commercial spray tank, dissolution and pH", "assay_type": "physicochemical", "from_the_text": "A commercial “Silvan” Trailing Boom Spray fitted with a 1000 L tank was used for this experiment. The boom was 10 m wide.\nThe glyphosate material used was glyphosate acid (purity 95%) with a particle size where 95% can pass through a 1.2 mm sieve.\nThe spray tank was filled with 900 L of water. The recirculation or agitation system was driven by a power take off (“PTO”) from the tractor. The recirculation system consisted of a wet boom, submerged at the base of the tank with outlets to one side of the tank's midline. […] This is acceptable agitation by commercial spray boom standards.\nWith the PTO operating, a blend made from 0.979 kg of the surfactant Empigen BB and 1.57 kg of the monoethanolamine was poured into the tank and allowed to disperse for one minute.\n4.26 kg of glyphosate acid was then tipped into the water.\nA commercial “Silvan” brand Trailing Boom Spray fitted with a 1000 L tank was use for this experiment. The boom was 10 m wide.\nGlyphosate acid (purity 95%) with a particle size where 95% can pass through a 0.5 mm sieve.\nThe spray tank was filled with 900 L of water. The recirculation or agitation system was driven by a PTO from the tractor. The recirculation system consisted of a wet boom at the base of the tank with outlets to one side of the tank's midline. […] This is adequate agitation by commercial spray boom standards.\n4.26 kg of the milled glyphosate acid was tipped into the water.\nA commercial “Silvan” Trailing Boom Spray fitted with a 1000 L tank was use for this experiment. The boom was 10 m wide.\nGlyphosate acid (purity 95%) with a particle size where 95% can pass through a 1.2 mm sieve but not through a 0.5 mm sieve.\nA blend made from 0.979 kg of the surfactant Empigen BB, a cocobetaine surfactant, and 1.57 kg of the monoethanolamine (MEA) was poured into the tank and allowed to disperse for one minute. A sample of water was collected and analysed for pH.\nA plastic mesh insert with holes of 3-4 mm diameter was fitted into the mouth of the tank and 4.26 kg of glyphosate acid was tipped into the insert. […]\nA sample of water was then taken and analysed for pH."}, "[2]": {"experiment": "Dissolution of glyphosate acid on stirring into diluted Alkali Surfactant Blend in 20 L buckets", "assay_type": "physicochemical", "conditions": "bucket, at the higher concentrations", "protocol": "Approximately 13 L of water was added to each of five 20 litre (“L”) plastic buckets (Table 1). Pack 1 was made by taking 37.5 parts monoethanolamine (“MEA”) and 25.3 parts of a cocobetaine surfactant called Empigen BB from Huntsman Chemical Company Australia. Pack 1 was also called the Alkaline-Surfactant Blend in this and later examples.\nGlyphosate acid technical material with a purity of 95% and a particle size smaller than 1 mm (Pack 2) was then added to the buckets at the rates given in Table 1 and stirred with a plastic paddle until all the acid disappeared. This took 3-5 minutes at the higher concentrations.\nApproximately 13 L of water was added to seven 20 L plastic buckets (Table 5). A blend of 37.5 parts MEA and 25.3 parts of the cocobetain surfactant Empigen BB was made to form the Alkali Surfactant Blend (Pack 1). Glyphosate acid (Pack 2) with a purity of 95% was then added to the buckets at the rates given in Table 5 and stirred with a plastic paddle until all the acid disappeared. This took 3-5 minutes at the higher concentrations.\nApproximately 13 L of water was added to seven 20 L plastic buckets (Table 22). The Alkali Surfactant Blend of monoethanolamine and the cocamidopropyl betaine (Pack 1) was then added to the water at the rates given in the Table. […]"}}}
{"smiles": "O=C(O)CNCP(=O)(O)O", "note": "[glyphosate acid, N-phosphonomethyl glycine]", "values": [{"measurement": "dissolution of glyphosate acid in spray tank", "setting": "[1]; Example 4: 4.26 kg acid (95% passes 1.2 mm sieve) tipped into 900 L water with MEA/Empigen BB blend, agitated, no mesh insert", "result": "almost all disappeared over the next 5 minutes"}, {"measurement": "time for glyphosate acid to disappear in spray tank", "setting": "[1]; Example 5: 4.26 kg milled acid (95% passes 0.5 mm sieve) tipped into 900 L water with MEA/Empigen BB blend, agitated, no mesh insert", "result": "≤ 10", "unit": "min"}, {"measurement": "undissolved acid in spray tank after washing through mesh", "setting": "[1]; Example 6: 4.26 kg acid washed through 3-4 mm plastic mesh insert over 1-2 minutes into 900 L water with MEA/Empigen BB blend", "result": "no evidence of undissolved acid"}, {"measurement": "time stirred until all the acid disappeared", "setting": "[2]; about 13 L water with MEA/Empigen BB blend", "result": "3 to 5", "unit": "min"}, {"measurement": "time stirred until all the acid disappeared", "setting": "[2]; about 13 L water with MEA/cocamidopropyl betaine blend", "result": "approximately 3 minutes"}]}
